17 compounds from patent US4530932A, “4-(1H-indol-3-yl)-α-methyl-piperidine-1-ethanol derivatives” (Roussel Uclaf, priority 1982, dated 1985) can be followed below.

Where a name gives a salt, the structure may show the parent alone. Read-outs that look alike come from different tables or passages of the source.

Series [1] relates to Rat arteries (arterial contractions, entry of calcium ions into the cells of smooth muscles). Description: In vitro anticalcic activity (inhibition of potassium-depolarized, calcium-induced contractions of isolated rat arteries). The class given is cell-based. To be noted: dose inhibiting by 50% the contractions caused by potassium ions (100 mM), 37° C., read-out: CI50 (the source's name). How it is done: Rat arteries decoupled in a spiral were attached to a tension collector and were maintained in tanks containing 2.5 ml of Krebs-sodium bicarbonate buffer (NaCl: 120.8 mM, KCl: 5.9 mM, MgCl2 : 1.2 mM, NaH2 PO4 : 1.2 mM, NaHCO3 : 15.5 mM, glucose: 12.6 mM), at 37° C. covered with a 95%-5% oxygen-carbon dioxide mixture. The preparations were depolarized with a buffered solution containing 100 mM of potassium ions (NaCl: 26.7 mM, KCl: 100 mM, MgCl2 : 1.2 mM, NaH2 PO4 : 1.2 mM, NaHCO3 : 15.5 mM, glucose 12.6 mM).
A volume of 25 μl of calcium chloride was added to the mixture in a manner to obtain a range of increasing concentrations of calcium ions from 0.1 to 3.0 mM and the contractions of the artery were measured to obtain a control. The operation with range of calcium ions was repeated every 15 minutes and the preparation was washed 4 times after each range. When a stable response was obtained, the operation with the range of calcium ions was effected in the presence of varying concentrations of test compounds until a stable response was obtained.
The arterial contractions depend on the entry of calcium ions into the cells of smooth muscles and are provoked by depolarization of smooth muscles by potassium ions and by action of noradrenaline freed by presynapthic level. By recommencing the operation with denerved arteries by the action of 6-hydroxy-dopamine, the specific action due to noradrenaline is suppressed.

The test system of series [2] is cardiac rhythm troubles in guinea pigs. Description: Antiarythmic action (K-strophanthine and adrenaline induced cardiac rhythm troubles). The class given is in vivo, guinea pig. To be noted: Cavia porcellus, 1 h, oral 10 mg/kg, one hour before K-strophanthine and adrenaline perfusion, read-out: Percentage of protection (lengthening of the time of appearance of cardiac rhythm troubles as compared to controls). Here is the method:
Male guinea pigs weighing between 450 and 500 g were tracheotomized while anesthesized by intraperitoneal administration of […] of urethane and were subjected to artifical respiration of 40 to 50 breaths of 5 ml per minute. Needles were subcutaneously implanted to register an electrocardiogram of the guinea pigs for the signal of D II derivation. The test products were orally administered and one hour later, the jugular vein of the guinea pigs were perfused with 0.5 ml per minute of a solution of 150 γ/ml of K-strophanthine and 0.5 ml per minute of a solution of 5 γ/ml of adrenaline and the number of times of the appearance of cardiac rhythm troubles was noted. The results are expressed in percentage of protection with an oral dose of 10 mg/kg of test product that is to say the percentage of lengthening of the time of appearance of cardiac rhythm troubles as compared to the controls.

A further series has as its system α1 adrenergic receptors. Description: Affinity for α1 adrenergic receptors (3H prazosine displacement, rat brain). The class given is binding. To be noted: relative to phentolamine (ARL=100×(CB/CX)), 25° C., pH 7.7. How it is done:
After centrifugation at 30,000 g for 15 minutes at 0° to 4° C., the culot was suspended in 240 ml of buffer Tris HCl 50 mM (pH-7.7) and the suspension was centrifuged at 30,000 g for 20 minutes at 0° to 4° C. The new culot was suspended in 480 ml of buffer Krebs Tris HCl (pH of 7.7-50 mM) and 2 ml of the suspension in the presence of 3H prazosine at a concentration of […] alone and with increasing concentrations of the test compound or with non-radioactive phentolamine at a concentration of 10^-5 M to determine the non-specific fixation was incubated at 25° C. for 30 minutes.
The incubated suspensions were filtered through Whatman FG/C and the filtered were washed with 3 times with 5 ml of buffer Krebs Tris HCl-pH of 7.7 at 0° to 4° C. The radioactivity of the filters was measured by liquid scintillation and the affinity of the test compound for α1 adrenergic receptors was compared relative to phentolamine as the reference compound by the formula
CD=concentration of phentolamine inhibiting by 50% the specific fixation of 3H prazosine.
CX=concentration of test product inhibiting by 50% the specific fixation of 3H prazosine.

A further series concerns mice. Description: Acute toxicity (DL0, oral). The class given is in vivo, mouse. More on the design: unit not given here.
In series [3] the test system is carotidien arterial pressure in rats. Description: Hypotensive activity (carotidien arterial pressure in anesthesized rats). The class given is in vivo, rat (Wistar). The settings on record: rat, intravenous. How it is done: The hypotensive activity was studied on male rats of the Wistar strain weighing about 300 g and anesthesized with 50 mg/kg of nembutal intraveinously. The test products were administered intraveinously by the jugular vein and the carotidien arterial pressure was measured before and after administration of the test compounds. The variations expressed in percentage of arterial pressure after administration with respect to the initial pressure is reported in Table IV.

The mark [4] stands for this setting: 1 min, 1 minute, read-out: % Variation of arterial pressure after administration, 1 minute.
[5] abbreviates: 5 min, 5 minutes, read-out: % Variation of arterial pressure after administration, 5 minutes.
Where [6] appears, read: 10 min, 10 minutes, read-out: % Variation of arterial pressure after administration, 10 minutes.
Where [7] appears, read: 0.5 h, 30 minutes, read-out: % Variation of arterial pressure after administration, 30 minutes.

Consider `OC(COc1ccccc1)CN1CCC(c2c[nH]c3ccccc23)CC1` (stereo not drawn) [Example 3, 4-(1H--indol-3-yl)-α-[phenoxymethyl]-piperidine-1-ethanol hydrochloride], for which the IC50 in series [1] came out at 2500 nM. Also, the change in vivo at 10 mg/kg in series [2] was found to be 55%.

Regarding `O=[N+]([O-])c1ccc(OCC(O)CN2CCC(c3c[nH]c4ccccc34)CC2)cc1` (stereo not drawn) [Example 5, 4-(1H--indol-3-yl)-α-[4-nitrophenoxymethyl]-piperidine-1-ethanol hydrochloride], the IC50 in series [1] was 4500 nM. For the same compound, the change in vivo at 10 mg/kg in series [2] amounted to 82%. Besides, the “% Arl (relative affinity for α1 adrenergic receptors)” value with α1 adrenergic receptors was determined as 77%. The “DL0 (maximum dose which did not cause any deaths after 8 days)” value in the series with mice was over 200.

For `COc1ccccc1OCC(O)CN1CCC(c2c[nH]c3ccccc23)CC1` (stereo not drawn) [Example 14, 4-(1H--indol-3-yl)-α-[2-methoxyphenoxymethyl]-piperidine-1-ethanol hydrochloride], in series [1], the IC50 stood at 11000 nM. Besides, in series [2], the change in vivo at 10 mg/kg was 83%. Further, the “DL0 (maximum dose which did not cause any deaths after 8 days)” value with mice is recorded as over 100.

As for `Cc1cccc(OCC(O)CN2CCC(c3c[nH]c4ccccc34)CC2)c1` (stereo not drawn) [Example 18, 4-(1H--indol-3-yl)-α-[3-methylphenoxymethyl]-piperidine-1-ethanol hydrochloride], the IC50 in series [1] amounted to 2000 nM. Further, in series [2], the change in vivo at 10 mg/kg worked out at 23%. Further, in the series with mice, the “DL0 (maximum dose which did not cause any deaths after 8 days)” value is over 100.

Turning to `Nc1ccccc1OCC(O)CN1CCC(c2c[nH]c3ccccc23)CC1` (stereo not drawn) [Example 19, 4-(1H--indol-3-yl)-α-[2-amino-phenoxymethyl]-piperidine-1-ethanol fumarate], the change in vivo at 10 mg/kg in series [2] amounted to 165%. In the series on mice, the “DL0 (maximum dose which did not cause any deaths after 8 days)” value was over 100.

For `CC(=O)Nc1ccccc1OCC(O)CN1CCC(c2c[nH]c3ccccc23)CC1` (stereo not drawn) [Example 20, 4-(1H--indol-3-yl)-α-[2-acetamidophenoxymethyl]-piperidine-1-ethanol hydrochloride], the “% Arl (relative affinity for α1 adrenergic receptors)” value in the series on α1 adrenergic receptors came out at 311%.

Regarding `OC(COc1cccc(Cl)c1)CN1CCC(c2c[nH]c3ccccc23)CC1` (stereo not drawn) [Example 22, 4-(1H--indol-3-yl)-α-[3-chloro-phenoxymethyl]-piperidine-1-ethanol hydrochloride], the IC50 in series [1] came out at 1800 nM. The “% Arl (relative affinity for α1 adrenergic receptors)” value with α1 adrenergic receptors came out at 70%. The “DL0 (maximum dose which did not cause any deaths after 8 days)” value in the series on mice was 80.

With `COc1cccc(OCC(O)CN2CCC(c3c[nH]c4ccccc34)CC2)c1` (stereo not drawn) [Example 23, 4-(1H--indol-3-yl)-α-[3-methoxyphenoxymethyl]-piperidine-1-ethanol hydrochloride], the change in vivo at 1 mg/kg in series [3] (setting [4]) is -7%; in series [3] (setting [5]) it was -19%; in series [3] (setting [6]), 14%; in series [3] (setting [7]), -17%. The IC50 in series [1] was 2700 nM. Also, the change in vivo at 10 mg/kg in series [2] was found to be 73%. The “DL0 (maximum dose which did not cause any deaths after 8 days)” value in the series on mice is over 200.

Consider `C=CCOc1ccccc1OCC(O)CN1CC=C(c2c[nH]c3ccccc23)CC1` (stereo not drawn) [Example 24, 4-(1H--indol-3-yl)-α-[2-prop-2-enyloxy)-phenoxymethyl]-1,2,3,6,tetrahydropyridine-1-ethanol fumarate], for which the change in vivo at 1 mg/kg in series [3] (setting [4]) is -10%; in series [3] (setting [5]), -16%; in series [3] (setting [6]), -11%; in series [3] (setting [7]), -17%. Also, the IC50 in series [1] stood at 700 nM. Besides, the “DL0 (maximum dose which did not cause any deaths after 8 days)” value with mice is over 200.

With `OC(COc1ccc(C(F)(F)F)cc1)CN1CCC(c2c[nH]c3ccccc23)CC1` (stereo not drawn) [Example 25, 4-(1H--indol-3-yl)-α-[4-trifluoramethylphenoxymethyl]-piperidine-1-ethanol hydrochloride], the change in vivo at 1 mg/kg is -5% in series [3] (setting [4]), -14% in series [3] (setting [5]), -6% in series [3] (setting [6]) and -14% in series [3] (setting [7]). For the same compound, the IC50 in series [1] was 1500 nM. For the same compound, in series [2], the change in vivo at 10 mg/kg came out at 35%. Also, the “DL0 (maximum dose which did not cause any deaths after 8 days)” value with mice was found to be 100.

With `C=CCOc1ccc(OCC(O)CN2CCC(c3c[nH]c4ccccc34)CC2)cc1` (stereo not drawn) [Example 26, 4-(1H--indol-3-yl)-α-[4-prop-2-enyloxy)-phenoxymethyl]-piperidine-1-ethanol hydrochloride], the IC50 in series [1] came to 1500 nM. In addition, the change in vivo at 10 mg/kg in series [2] turned out to be 68%. Further, in the series on mice, the “DL0 (maximum dose which did not cause any deaths after 8 days)” value was over 200.

In the case of `COc1ccc(OCC(O)CN2CCC(c3c[nH]c4ccccc34)CC2)cc1OC` (stereo not drawn) [Example 27, 4-(1H--indol-3-yl)-α-[3,4-dimethoxyphenoxymethyl]-piperidine-1-ethanol hydrochloride], the change in vivo at 10 mg/kg in series [2] was 115%. In addition, the “DL0 (maximum dose which did not cause any deaths after 8 days)” value with mice is 80.

As for `C=CCOc1cccc(OCC(O)CN2CCC(c3c[nH]c4ccccc34)CC2)c1` (stereo not drawn) [Example 28, 4-(1H--indol-3-yl)-α-[3-(prop-2-enyloxy)-phenoxymethyl]-piperidine-1-ethanol hydrochloride], the change in vivo at 1 mg/kg in series [3] (setting [4]) was -5%; in series [3] (setting [5]), -10%; in series [3] (setting [6]), -6%; in series [3] (setting [7]) it was -9%. In addition, in series [1], the IC50 came to 2400 nM. In addition, in series [2], the change in vivo at 10 mg/kg worked out at 103%. Moreover, the “DL0 (maximum dose which did not cause any deaths after 8 days)” value in the series with mice was over 100.

With `OC(COc1ccc(Cl)c(Cl)c1)CN1CCC(c2c[nH]c3ccccc23)CC1` (stereo not drawn) [Example 29, 4-(1H--indol-3-yl)-α-[3,4-dichlorophenoxymethyl]-piperidine-1-ethanol hydrochloride], in series [1], the IC50 is 2400 nM. The change in vivo at 10 mg/kg in series [2] is 53%. Besides, the “DL0 (maximum dose which did not cause any deaths after 8 days)” value in the series on mice was over 100.

As for `Oc1cccc(OCC(O)CN2CCC(c3c[nH]c4ccccc34)CC2)c1` (stereo not drawn) [Example 30, 4-(1H--indol-3-yl)-α-[3-hydroxyphenoxymethyl]-piperidine-1-ethanol hydrochloride], the change in vivo at 10 mg/kg in series [2] is 86%. The “DL0 (maximum dose which did not cause any deaths after 8 days)” value in the series with mice is on record as over 100.

Turning to `C=CCOc1ccccc1OCC(O)CN1CCC(c2cn(C)c3ccccc23)CC1` (stereo not drawn) [Example 31, 4-(1-methyl-1H--indol-3-yl)-α-[2-(prop-2-enyloxy)-phenoxymethyl]-piperidine-1-ethanol fumarate], the IC50 in series [1] was determined as 3000 nM. The change in vivo at 10 mg/kg in series [2] stood at 49%.

On to `C=CCOc1ccccc1OCC(O)CN1CCC(c2c[nH]c3ccc(OC)cc23)CC1` (stereo not drawn) [Example 32, 4-(5-methoxy-1H--indol-3-yl)-α -2-(prop-2-enyloxy)-phenoxymethyl]-piperidine-1-ethanol fumarate], for which the IC50 in series [1] worked out at 1900 nM. The change in vivo at 10 mg/kg in series [2] came to 20%.
